According to patent US4870002A, “Method of prevention of oxidative injury to cells” (priority 1985, dated 1989):
Read-outs that look alike come from different tables or passages of the source.

What was measured:
[1] = system: porcine RBCs; experiment: Nonspecific binding of Lu-BSA to porcine RBCs (base-activated chemiluminescence); assay type: cell-based, pig
Description: Blood was collected from Landrace-Duroc swine from a closed herd. Pigs from this herd had previously expressed episodes of porcine stress syndrome (malignant hyperthermia) following halothane anesthesia. The blood was collected into acidic citrated dextrose solution in standard blood bags. The blood was diluted 1:10 in phosphate (0.1M) buffered saline (PBS), pH 7.4, in 10 ml aliquots, centrifuged in a clinical centrifuge, and the erythrocytes were resuspended in fresh PBS. The cells were stored at 4° C. until used in the various assays. The post-collection chronological age of the RBCs used for a particular assay is noted in the results for each assay. The cells were counted in an automated cell counter (Coulter ZBI, Coulter Electronics, Inc., Hialeah, Fla. 33010). Nonspecific binding of Lu-BSA to porcine RBCs was measured following treatment with hydrogen peroxide, pyruvate, and/or 3-amino-L-tyrosine at 4°, 37°, or 45° C. The exposure times for those agents were 15 min, 30 min, or 72 hours. The reagents were removed by centrifugation. Three binding protocols were followed: (1) 0.25 ml of 1:20 RBCs (19 days post collection) were incubated with 0.25 ml of 1 mg/ml Lu-BSA in PBS, pH 6.9, for 30 min at 37° C. and washed (Table 1); (2) 0.05 ml of packed RBCs (less than 24 hours post collection) were resuspended in 0.2 ml of the Lu-BSA solution and incubated overnight at 4° C. […] The cells in all three protocols were washed once in PBS, pH 7.4, and resuspended in PBS to final dilutions of 1:20 for (1) and 1:30 for (2) and (3). Following this preparation, 100 μl of each cell suspension were added to 500 μl of PBS, pH 7.4, in a scintillation vial. The vial was placed in the photometer and the solution was activated by the addition of 100 μl 0.1N NaOH. The settings for the photometer were as previously described for the Con A-Lu-BSA.

[2] = system: pig RBCs; experiment: Thermal fragility / hemolysis of RBCs (410 nm absorbance of supernatant); assay type: cell-based; conditions: for thermal hemolysis, 410 nm optical absorbance, Hot air / thermal hemolysis, 410 nm optical absorbance, Microwave exposed / 410 nm optical absorbance of 1:2 diluted supernatant, Hot air / 410 nm optical absorbance of 1:2 diluted supernatant, Microwave exposed: 43° C. (10 min); for thermal hemolysis, 410 nm optical absorbance, Hot air / thermal hemolysis, 410 nm optical absorbance, Microwave exposed: Con A-Lu-BSA labeled RBCs 11-14 days post collection; for effect on thermal hemolysis, in words: 48° C. for 30 min; for 410 nm optical absorbance of 1:2 diluted supernatant, 4° C. / 410 nm optical absorbance of 1:2 diluted supernatant, Hot air / 410 nm optical absorbance of 1:2 diluted supernatant, Microwave exposed: RBCs 6 days post collection
Description: Blood was collected from Landrace-Duroc swine from a closed herd. Pigs from this herd had previously expressed episodes of porcine stress syndrome (malignant hyperthermia) following halothane anesthesia. The blood was collected into acidic citrated dextrose solution in standard blood bags. The blood was diluted 1:10 in phosphate (0.1M) buffered saline (PBS), pH 7.4, in 10 ml aliquots, centrifuged in a clinical centrifuge, and the erythrocytes were resuspended in fresh PBS. The cells were stored at 4° C. until used in the various assays. The post-collection chronological age of the RBCs used for a particular assay is noted in the results for each assay. The cells were counted in an automated cell counter (Coulter ZBI, Coulter Electronics, Inc., Hialeah, Fla. 33010).
Red blood cells were heated in 1 or 1.5 ml aliquots of PBS pH 7.4 with or without additional reagents in cellulose nitrate or polypropylene centrifuge tubes. Two concentrations of cells were used as indicated in the results. Heating was accomplished by three methods: microwave radiation, hot air, or water bath heating. The microwave device was a circularly polarized waveguide powered by a 1-kw S-band (microwave) amplifier (Model 10704,MCL, Inc., La Grange, Ill.). The heating of the sample at a specific absorption rate (SAR) of 91±4 W/kg (continuous wave (CW), 2450MHz) was offset by an air-cooling system that maintained a constant temperature. This system has been previously described in greater detail in Kiel, J. L. and D. N. Erwin, "Microwave and thermal interactions with oxidative hemolysis", 16 Physiol. Chem. Phys. Med. NMR, 317-323 (1984), which reference is hereby incorporated in its entirety by this specific reference thereto. […] The temperature was held within ±0.2° C. by this system. In the absence of microwave radiation, the temperature was held constant by hot air alone. The microwave/hot air system was brought to 37° C. for 15 min. prior to raising the temperature to 43° C. by microwaves or hot hot air. The water bath heating held the temperature within ±0.5° C. Heating times were 10, 15, or 30 min. The temperatures examined were 37°, 43°, 45°, or 48°.
Hemoglobin released into the supernatants of the heated cells were determined by the method described in the above-incorporated reference of Kiel and Erwin (1984). In brief, the supernatants were collected following centrifugation in a clinical centrifuge, diluted 1:2 in PBS, pH 7.4, and the optical absorbances at 410 nm were determined in a dual beam spectrophotometer. Pyruvate, lactate, inosine, hydrogen peroxide, mimosine, and/or 3-amino-L-tyrosine were added to the samples as indicated in Tables 1-3 and 9-12. All reagents were diluted in PBS and the final volumes of the samples were constant.

[3] = system: Con A-Lu-BSA labeled pig RBCs; experiment: Chemiluminescence of Con A-Lu-BSA labeled pig RBCs with exogenous hydrogen peroxide; assay type: cell-based
Description: The luminol-bovine serum albumin (Lu-BSA) complex was made by mixing 2 mg luminol (5-amino-2, 3-dihydrophthalazine-1,4-dione), 0.2 ml of 2 mg BSA/ml PBS (pH 6.9), and 1.6 ml of PBS, pH 6.9. The preparation was then passed through a 0.22 μm nitrocellulose filter to remove insoluble luminol. Next, 0.2 ml of 2 mg Con A/ml of PBS, pH 6.9, was added to the filtrate. After gentle mixing, 10 μl of 25% glutaraldehyde were added. The solution was incubated in the refrigerator for 1 hour. To stop the conjugation, 100 mg of glycine was added to the solution. The solution was then pressed through a 48 ml column of dextran gel filtration beads equilibrated with PBS, pH 6.9. The gel exclusion size was greater than 5000 for globular molecules. The fractions were collected and tested for luminescent labeling activity.
One ml of supernatant of each 10 ml aliquot of 1:20 diluted RBCs was replaced with 1 ml of Con A-Lu-BSA solution as previously described. The preparation was incubated for 15 min. at 37° C. in a water-jacketedcell culture incubator. The cells were then pelleted in a clinical centrifuge, resuspended in PBS, and washed in the same manner two additional times. The washed cells were maintained at 4° C. until used the same day of preparation.
Following exposure to chemical or physical stressors, 100 μl of the RBC suspension was added to 500 μl of PBS, pH 7.4, containing 0.3% hydrogen peroxide, in a scintillation vial. To activate the sample, 100 μl of 0.1N NaOH were added to the vial in place in an ATP photometer (Integrating ATP Photometer Model 3000, Science Applications, San Diego, California 92121) The photometer was set to a dark count of 1 count/30 second at a sensitivity of 600 at room temperature (approximately 23° C.). All counts followed a 5 second delay period to allow for stabilization of the photomultiplier. The counts are reported as counts/30 sec.
All essays were run at room temperature. The post-collection age of those cells was 11-18 days and the cells were used the day of labeling. […] Pyruvate (1.43 mM), an autoxidizable substrate, doubled the CL of labeled cells.

[4] = system: peroxidase; experiment: 3-aminotyrosine oxidation by peroxidase; assay type: biochemical
[5] = system: Con A-Lu-BSA labeled pig RBCs; experiment: Chemiluminescence of Con A-Lu-BSA labeled pig RBCs with exogenous hydrogen peroxide; assay type: cell-based; conditions: Sus scrofa, Erythrocyte, 1.43 mM, no cells; read-out: Percent control
[6] = system: 20-methylcholanthrene induced tumors; conditions: cited from earlier work
[7] = in vivo; cited from earlier work
[8] = 1.43 mM, labeled RBCs 11-18 days post collection, room temperature
[9] = Sus scrofa, Erythrocyte, 1.43 mM, read-out: Percent control

Compound: OO [Hydrogen peroxide, reference compound]
- CL (30 s) ([1]; Lu-BSA binding, pretreatment 44 mM, 37° C., 15 min, RBCs 19 days post collection): 558 ± 157 counts/30 s
- activation at 44000 µM ([1]; Sus scrofa, 0.25 h, 44 mM, 15 min, 37° C. (hot air), 1.4×10^9 RBCs/ml, read-out: increase in bound Lu-BSA compared to cells maintained in PBS): 721%
- activation at 11700 µM ([1]; Sus scrofa, 0.5 h, hydrogen peroxide 11.7 mM, 37° C., 30 min, vs 4° C. control, read-out: Percent difference from control): 254%
- CL (30 s) ([1]; hydrogen peroxide 11.7 mM, 37° C., 30 min, RBCs less than 24 hours post collection): 1346 ± 386 counts/30 s

Compound: OC[C@H]1O[C@@H](n2cnc3c(O)ncnc32)[C@H](O)[C@@H]1O [Inosine]
- benefit of storing RBCs in reagent in respect to thermal fragility, in words ([2]; 10 mM): no significant benefit
- thermal hemolysis, 410 nm optical absorbance, Hot air ([2]; 10 mM): 0.597 ± 0.080
- thermal hemolysis, 410 nm optical absorbance, Microwave exposed ([2]; 10 mM): 0.578 ± 0.045
- effect on CL of labeled cells, in words ([3]; 1.43 mM): small but significant increase
- CL (30 sec) [3, 8]: 34,972 ± 2,732 counts/30 sec
- activity at 1430 µM [3, 9]: 115%

Compound: NC(Cn1ccc(=O)c(O)c1)C(=O)O [L--mimosine, L-mimosine]
- mode of inhibition, in words [4]: uncompetitive inhibitor
- Percent difference from controls (corrected), 4° C. ([2]; 340 μM, 48° C. 30 min): 95.1%
- Percent difference from controls (corrected), 48° C. ([2]; 340 μM, 48° C. 30 min): 21.5%
- 410 nm absorbance, Actual ([2]; 340 μM, 48° C. 30 min, RBCs 20 days post collection, 1.4×10^9 per ml): 0.965 ± 0.026
- 410 nm absorbance, Corrected ([2]; 340 μM, 48° C. 30 min, corrected for RBC dilution): 0.724
- effect on thermal hemolysis, in words ([2]; 340 μM, listed as Mimosine): had no effect
- effect on thermal hemolysis, in words ([2]; 340 μM, listed as mimosine): failed to protect
- CL (30 sec) ([3]; 630 μM): 8,555 ± 1,044 counts/30 sec
- level of CL below natural RBC CL ([3]; 630 μM): 36%
- effect of prewashing labeled cells on CL, in words ([3]; 5 mM, 30 min at room temperature): no significant effect
- activity at 630 µM ([3]; Sus scrofa, Erythrocyte, 630 μM, read-out: Percent control): 28%
- activity at 5000 µM ([3]; Sus scrofa, Erythrocyte, pretreatment 5 mM, 30 min, washed before activation, read-out: Percent control): 94%
- inhibition at 630 µM ([3]; Sus scrofa, 630 μM, read-out: inhibition of CL): 72%
- CL (30 sec) ([3]; pretreatment 5 mM, 30 min, washed before activation): 28,517 ± 2,591 counts/30 sec

Compound: CC(O)C(=O)O (centres unmarked) [Lactate]
- change in hemolysis, in words ([2]; 10 mM, 43° C., RBCs 6 days post-collection): insignificant increases
- 410 nm optical absorbance of 1:2 diluted supernatant, 4° C. ([2]; 10 mM): 0.362
- thermal hemolysis, 410 nm optical absorbance, Hot air ([2]; 10 mM): 0.667 ± 0.04
- thermal hemolysis, 410 nm optical absorbance, Microwave exposed ([2]; 10 mM): 0.643 ± 0.02
- 410 nm optical absorbance of 1:2 diluted supernatant, Hot air ([2]; 10 mM): 0.440 ± 0.078
- 410 nm optical absorbance of 1:2 diluted supernatant, Microwave exposed ([2]; 10 mM): 0.424 ± 0.014
- effect on CL of labeled cells, in words ([3]; 1.43 mM): insignificant increases
- CL (30 sec) [3, 8]: 30,930 ± 3,399 counts/30 sec
- activity at 1430 µM [3, 9]: 102%

Compound: CC(=O)C(=O)O [Pyruvate]
- activity at 1430 µM [5]: 1.4%
- 410 nm optical absorbance of 1:2 diluted supernatant, 4° C. ([2]; 10 mM): 0.363
- thermal hemolysis, 410 nm optical absorbance, Hot air ([2]; 10 mM): 0.646 ± 0.02
- thermal hemolysis, 410 nm optical absorbance, Microwave exposed ([2]; 10 mM): 0.646 ± 0.07
- 410 nm optical absorbance of 1:2 diluted supernatant, Hot air ([2]; 10 mM): 0.427 ± 0.015
- 410 nm optical absorbance of 1:2 diluted supernatant, Microwave exposed ([2]; 10 mM): 0.374 ± 0.055
- spontaneous hemolysis reading ([2]; pyruvate 1.33 mM, 37° C., RBCs 72 hours post collection): 0.362±0.016
- CL (30 s) ([1]; 1.33 mM, 45° C., 30 min): 1203 ± 266 counts/30 s
- CL (counts/30 s) ([1]; 1.33 mM, 30 min at 37° C., RBCs 72 hours post collection): 2348 ± 646 counts/30 s
- activation at 1330 µM ([1]; Sus scrofa, 1.33 mM during exposure to 45° C., read-out: increase in Lu-BSA binding over the 45° C. exposure alone): 101%
- activation at 1330 µM ([1]; Sus scrofa, 0.5 h, 1.33 mM, 45° C., 30 min, vs 4° C. control, read-out: Percent difference from control): 216%
- activation at 1330 µM ([1]; Sus scrofa, 0.5 h, 1.33 mM, 30 min at 37° C., read-out: Percent difference from control): 166%
- fold induction at 1330 µM ([1]; Sus scrofa, 0.5 h, 1.33 mM, 30 min at 37° C., read-out: increase of Lu-BSA binding): 2.7
- CL (30 sec) ([3]; 1.43 mM, no cells): 420 counts/30 sec
- CL (30 sec) [3, 8]: 60,732 ± 3,258 counts/30 sec
- activity at 1430 µM [3, 9]: 200%

Compound: S=P(N1CC1)(N1CC1)N1CC1 [thio-TEPA, reference compound]
- effect on tumor growth, in words ([6]; agent alone): Neither myeloperoxidase nor thio-TEPA alone were effective

Compound: myeloperoxidase
- effect on tumor growth, in words ([6]; agent alone): Neither myeloperoxidase nor thio-TEPA alone were effective
- effect on tumor growth, in words ([6]; myeloperoxidase injected in combination with thio-TEPA): significant reduction in tumor growth
- biological half-life [7]: about 24 hours
